# Laboratory results as given in patent US20060147548A1, “Therapeutic delivery of carbon monoxide” (priority 2002, published 2006).
# How the values were obtained:
# [1] = molecular target: T1, purified guanylate cyclase (Bos taurus, UniProt P16068); settings: in vitro; literature reference (8); cited from earlier work
# T1 sequence (P16068 1-619): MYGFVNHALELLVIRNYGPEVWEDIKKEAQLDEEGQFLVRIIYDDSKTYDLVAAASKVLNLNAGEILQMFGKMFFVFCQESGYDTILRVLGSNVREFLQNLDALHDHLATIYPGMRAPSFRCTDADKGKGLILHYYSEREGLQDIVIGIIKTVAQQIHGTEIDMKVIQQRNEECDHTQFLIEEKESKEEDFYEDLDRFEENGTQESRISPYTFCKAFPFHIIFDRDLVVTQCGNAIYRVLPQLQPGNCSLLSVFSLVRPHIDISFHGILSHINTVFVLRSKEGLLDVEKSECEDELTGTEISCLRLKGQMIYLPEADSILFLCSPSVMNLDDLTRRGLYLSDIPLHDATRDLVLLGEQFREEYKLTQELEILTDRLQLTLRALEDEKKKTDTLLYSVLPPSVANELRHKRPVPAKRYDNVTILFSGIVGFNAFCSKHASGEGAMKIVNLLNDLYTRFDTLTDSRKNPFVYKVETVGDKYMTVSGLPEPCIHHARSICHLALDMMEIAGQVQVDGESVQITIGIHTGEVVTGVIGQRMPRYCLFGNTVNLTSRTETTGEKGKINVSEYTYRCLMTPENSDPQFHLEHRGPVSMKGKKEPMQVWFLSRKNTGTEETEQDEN
# T1 sequence (P19687 1-691 partner): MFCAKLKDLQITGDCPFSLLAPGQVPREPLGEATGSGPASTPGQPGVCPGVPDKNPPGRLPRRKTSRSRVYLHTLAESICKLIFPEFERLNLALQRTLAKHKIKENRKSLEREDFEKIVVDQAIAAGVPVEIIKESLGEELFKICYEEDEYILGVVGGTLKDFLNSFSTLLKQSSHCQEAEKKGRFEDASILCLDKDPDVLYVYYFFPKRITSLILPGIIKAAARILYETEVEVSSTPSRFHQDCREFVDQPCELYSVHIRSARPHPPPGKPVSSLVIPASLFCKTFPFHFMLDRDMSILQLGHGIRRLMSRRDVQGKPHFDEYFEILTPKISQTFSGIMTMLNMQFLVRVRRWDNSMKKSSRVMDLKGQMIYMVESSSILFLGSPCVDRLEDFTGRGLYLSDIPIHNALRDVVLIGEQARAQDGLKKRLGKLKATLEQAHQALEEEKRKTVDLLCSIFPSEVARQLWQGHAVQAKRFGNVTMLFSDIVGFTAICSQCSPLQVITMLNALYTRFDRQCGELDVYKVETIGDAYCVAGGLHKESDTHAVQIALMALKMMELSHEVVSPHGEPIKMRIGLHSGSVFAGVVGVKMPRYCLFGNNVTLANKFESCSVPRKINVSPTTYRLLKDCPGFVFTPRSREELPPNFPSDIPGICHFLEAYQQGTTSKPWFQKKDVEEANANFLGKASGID
# Myoglobin (Mb) [2] = assay: Conversion of myoglobin (Mb) to carbon monoxide myoglobin (MbCO), CO release; assay type: biochemical; settings: for conversion of Mb to MbCO: Mb 50 μM, absorption spectrum
# Excerpt: This method has been previously developed to monitor and determine the amount of CO released from CO-RMs (7).
# [3] = test system: isolated aortic rings pre-contracted with phenylephrine; assay: Relaxation of isolated rat aortic rings pre-contracted with phenylephrine; assay type: cell-based; settings: for relaxation as percentage of the maximal phenylephrine-mediated contraction: Example 1; for percentage of relaxation: Example 4A, 100 μM CORM-3
# Experimental: The method for the preparation of isolated aortic rings has been previously described (5; 7). The thoracic aorta was isolated from Sprague-Dawley rats (350-450 g) and flushed with cold Krebs-Henseleit buffer (4° C., pH 7.4) containing (in mM): 118 NaCl, 4.7 KCl, 1.2 KH2PO4, 1.2 MgSO4.7H2O, 22 NaHCO3, 11 Glucose, 0.03 K^+EDTA, 2.5 CaCl2 and supplemented with 10 AM indomethacin. Each aorta was trimmed of adventitial tissue and ring sections (˜3 mm length) were produced from the mid aortic segment. The rings were then mounted between two stainless steel hooks in 9-ml organ baths containing Krebs-Henseleit buffer which was maintained at 37° C. and continuously gassed with 95% O2-5% CO2. One hook was attached to a Grass FT03 isometric force transducer whilst the other was anchored to a sledge for regulation of the resting tension of the aortic ring. The rings were initially equilibrated for 30 min under a resting tension of 2 g which was previously determined to be optimal. Continuous recording of tension was made on a Grass 7D polygraph (Grass Instruments, Quincy, Mass.) in combination with a Biopac MP100 system using AcqKnowledge™ software (Linton Instruments, Norfolk, UK). Before each protocol was carried out, rings were contracted with a standard dose of KCl (100 mM) in order to provide an internal reference and to control for variability in contractile responsiveness between tissues.
# The preparation of isolated aortic rings and recording of tension was as in Example 1. Before each protocol was carried out, rings were contracted with a standard dose of KCl (100 mM) in order-to provide an internal reference and to control for variability in contractile responsiveness between tissues. […] An additional set of experiments was performed in which the vascular endothelium was removed from the aortic tissue prior to CORM-3 addition.
# Lewis rats = assay: Effect on mean arterial pressure in anaesthetised rats; assay type: in vivo, rat
# Experimental: Lewis rats (280-350 g) were anaesthetised by intramuscular injection of 1 ml/kg Hypnorm. Specially designed femoral artery and venous catheters were then surgically implanted as previously described (5; 6) and blood pressure monitored continuously using a polygraph recorder.
# human platelets = settings: increased cGMP levels by YC-1 in the presence of CO; literature reference (1); cited from earlier work
# Myoglobin (Mb) [4] = settings: stated as known; cited from earlier work
# [5] = test system: isolated aortic rings pre-contracted with phenylephrine; settings: stated as known; species not given; cited from earlier work
compound,measurement,setting,value
"[C-]#[O+] [CO, carbon monoxide]",increase of enzymatic activity of purified guanylate cyclase,[1],4.4 fold
same,conversion of Mb to MbCO,Myoglobin (Mb) [2],rapid conversion to carbon monoxide myoglobin (MbCO)
"NCC(=O)O.[C-]#[O+].[C-]#[O+].[C-]#[O+].[Cl][Ru] [CORM-3, Ru(CO)3Cl(NH2CH2CO2)]",relaxation as percentage of the maximal phenylephrine-mediated contraction,"[3]; CORM-3 25 μM, after first addition, presence of YC-1 (5 μM, 30 min pre-incubation)",33%
same,relaxation as percentage of the maximal phenylephrine-mediated contraction,"[3]; CORM-3 25 μM, after second addition, presence of YC-1 (5 μM, 30 min pre-incubation)",66.6%
same,relaxation as percentage of the maximal phenylephrine-mediated contraction,"[3]; CORM-3 25 μM, after third addition, presence of YC-1 (5 μM, 30 min pre-incubation)",80.9%
same,relaxation as percentage of the maximal phenylephrine-mediated contraction,"[3]; CORM-3 25 AM per addition, after first addition, absence of YC-1",10.3%
same,relaxation as percentage of the maximal phenylephrine-mediated contraction,"[3]; CORM-3 25 AM per addition, after second addition, absence of YC-1",24.1%
same,relaxation as percentage of the maximal phenylephrine-mediated contraction,"[3]; CORM-3 25 AM per addition, after third addition, absence of YC-1",38%
same,relaxation,"[3]; Example 3, 100 μM, within few minutes from addition",approximately 54%
same,percentage of relaxation,"[3]; first addition, in the presence of ODQ (10 μM, 15 min prior)",1.0±0.8%
same,percentage of relaxation,"[3]; first addition, in the presence of glibenclamide (10 μM, 30 min prior)",13.2±4.1%
same,percentage of relaxation,"[3]; first cumulative addition, mean±S.E.M., 6 experiments",37.5±5.3%
same,percentage of relaxation,"[3]; second cumulative addition, mean±S.E.M., 6 experiments",48.2±4.4%
same,percentage of relaxation,"[3]; third cumulative addition, mean±S.E.M., 6 experiments",53.9±4.3%
same,relaxation,"[3]; Example 4B, 25 μM CORM-3, after the third addition, pre-treatment with YC-1 (1 μM, 30 min)",77%
same,relaxation,"[3]; Example 4B, 25 μM CORM-3 alone, after the third addition",approximately 31%
same,effect of YC-1 on CORM-3-mediated relaxation,"[3]; Example 4B, 50 μM and 100 μM CORM-3, YC-1 1 μM pre-treatment",potentiation of relaxation
same,effect of L-NAME on relaxation at increased CORM-3 concentration,"[3]; Example 4C, CORM-3 200 and 400 μM, L-NAME present",reversed
same,relaxation,"[3]; Example 4C, CORM-3 alone, first addition",approximately 37%
same,relaxation,"[3]; Example 4C, CORM-3 first addition, presence of L-NAME (100 μM) in the organ bath",5%
same,response of aortic rings without the endothelium (−E),"[3]; Example 4C, endothelium removed, unless CORM-3 increased to 400 μM",did not respond to CORM-3 in the same way as intact vessels
same,conversion of Mb to MbCO,Myoglobin (Mb) [2],formation of MbCO is observed
same,loss of CO on incubation,Myoglobin (Mb) [2]; incubating overnight at 37° C. in phosphate buffer at pH=7.4,rapidly lost
same,decrease in MAP,"Lewis rats; CORM-3 30 μmoles/kg i.v. first injection, YC-1 1.2 μmoles/kg i.v. 5 min before",37.0±2.4 mmHg
same,decrease in MAP,"Lewis rats; CORM-3 30 μmoles/kg i.v. second injection, YC-1 1.2 μmoles/kg i.v. 5 min before first injection",22.0±2.3 mmHg
same,decrease in MAP,"Lewis rats; CORM-3 alone 30 μmoles/kg i.v., first injection, recorded 20 min after injection",9.4±2.8 mmHg
same,decrease in MAP,"Lewis rats; CORM-3 alone 30 μmoles/kg i.v., second bolus 20 min after the first",13.3±4.9 mmHg
"[N]=O [NO, nitric oxide]",increase of enzymatic activity of purified guanylate cyclase,[1],130 fold
"OCc1ccc(-c2nn(Cc3ccccc3)c3ccccc23)o1 [YC-1, 3-(5′-hydroxymethyl-2′-furyl)-1-benzyl-indazole, reference compound]",inhibition of platelet aggregation,human platelets,complete inhibition of platelet aggregation
same,change in vessel contractility,"[3]; Example 4B, pre-treatment with YC-1 alone (1 μM, 30 min)",did not cause any significant change in vessel contractility
same,decrease in MAP,"Lewis rats; YC-1 1.2 μmoles/kg i.v., after 5 min, before CORM-3",7.0±1.6 mmHg
"[Fe(SPh)2(2,2′-bipyridine) (CO)2]",release of CO to myoglobin in solution,Myoglobin (Mb) [4],does not release CO to myoglobin in solution
same,dilatation of pre-contracted aortic rings,[5],capable of promoting dilatation of pre-contracted aortic rings
